Data taken from US20230097992A1, “BIVALENT EGF FUSION TOXINS” (The Regents of the University of Colorado, a body corporate, priority 2020, published 2023).

Columns and labels:
[1] = tested on: human EGFR-positive HNSCC cell line HN6; experiment: CellTiter-Glo Luminescent Cell Viability Assay, HN6; format: cell-based; details: HN-6, read-out: IC50 to HNSCC cell lines (Erlotinib)
Method: (§1) FIG. 9 presents the data from in vitro efficacy analysis of the human EGF fusion toxins against human EGFR-positive HNSCC cell lines using CellTiter-Glo® Luminescent Cell Viability Assay (Promega) Y-axis: inhibition rate of the cell viability by determining the number of viable cells based on the quantification of the ATP present. X-axis: plated fusion toxin concentration. Cycloheximide (1.25 mg/mL) was used as a positive control. The negative control contained cells without fusion toxin. Data were from three individual experiments for each HNSCC cell line. Error bars indicate SD.
(§2) Y-axis: inhibition rate of the cell viability by determining the number of viable cells based on the quantification of the ATP present. […] Cycloheximide (1.25 mg/mL) was used as a positive control. […]
(§3) In vitro efficacy analysis of the human EGF fusion toxins (mEGF-IT and bEGF-IT) to the human HNSCC tumor cell lines was performed using CellTiter-Glo® Luminescent Cell Viability Assay (Promega Corporation, Madison, Wis.) as described previously (Zheng et al. (2017), Mol. Oncol. 11, 584-594, which is hereby incorporated by reference in its entirety). This cell viability assay measures the luminescence produced because of ATP production from metabolically active cells. […] The luminescence signals were recorded using BioTek Synergy LX Multi-Mode Reader.
(§4) IC50 was determined using nonlinear regression (curve fit) of Prism. […]

[2] = tested on: human EGFR-positive HNSCC cell line UMSCC1; experiment: CellTiter-Glo Luminescent Cell Viability Assay, UMSCC1; format: cell-based; details: UMSCC1, read-out: IC50 to HNSCC cell lines (Erlotinib)
Method: as §1, §2, §3, §4

[3] = tested on: human EGFR-positive HNSCC cell line UMSCC47; experiment: CellTiter-Glo Luminescent Cell Viability Assay, UMSCC47; format: cell-based; details: read-out: IC50 to HNSCC cell lines (Erlotinib)
Method: as §1, §2, §3, §4

[4] = tested on: human EGFR-positive HNSCC cell line TU167; experiment: CellTiter-Glo Luminescent Cell Viability Assay, TU167; format: cell-based; details: read-out: IC50 to HNSCC cell lines (Erlotinib)
Method: as §1, §2, §3, §4

[5] = tested on: human EGFR-positive HNSCC cell line Vu1365; experiment: CellTiter-Glo Luminescent Cell Viability Assay, Vu1365; format: cell-based; details: read-out: IC50 to HNSCC cell lines (Erlotinib)
Method: as §1, §2, §3, §4

[6] = tested on: 14 human EGFR-positive HNSCC cell lines; experiment: CellTiter-Glo in vitro efficacy, all examined HNSCC cell lines together; format: cell-based
Method: Cycloheximide (1.25 mg/mL) was used as a positive control. […] Data were from three individual experiments for each HNSCC cell line.
In vitro efficacy of the human EGF fusion toxins against HNSCC cell lines were assessed using CellTiter-Glo® Luminescent Cell Viability Assay.

[7] = tested on: 14 EGFR+ HNSCC cells lines; experiment: Flow cytometry binding, all 14 EGFR+ HNSCC cell lines together; parameters: species or system human; details: mean over the 14 EGFR+ HNSCC cell lines
[8] = tested on: residual Cal27 tumor cells; experiment: CellTiter-Glo Luminescent Cell Viability Assay, residual Cal27 tumor cells; format: cell-based, human; details: residual Cal27 cells from flank xenografts at day 14 after bEGF-IT 50 μg/kg once daily for 10 days
Text: FIGS. 13A-C present in vitro binding affinity and efficacy analysis of the bEGF-IT to the residual Cal27 tumor cells. FIG. 13A: Flow cytometry binding affinity analysis of the bEGF-IT to the residual Cal27 tumor cells. The data were representative of three individual experiments. FIG. 13B: KD determination of the bEGF-IT to the residual Cal27 tumor cells using flow cytometry and nonlinear least squares fit. FIG. 13C: In vitro efficacy analysis of the bEGF-IT to the residual Cal27 tumor cells using CellTiter-Glo® Luminescent Cell Viability Assay. bEGF-IT group (green line); Anti-murine PD-1 immunotoxin group as negative control (blue line). Data were from three individual experiments. Error bars indicate SD.
The tumor was removed from the sacrificed flank-xenograft solid tumor-bearing mice and washed with PBS twice in sterile manner. Then the tumor sample was cut into small pieces (approximately 1 mm^3) on the lid of a petri dish and washed with PBS. The tissue pellet was resuspended in DMEM tissue culture medium and cultured in the T25 flask. After several days of culture, the tissue residues were removed and the residual tumor cells were cultured as parent Cal27 tumor cell line.
It was hypothesized that the residual tumor cells were still sensitive to the human EGF fusion toxin treatment. […]

NSG mice = experiment: In vivo off-target toxicity in NSG mice
Text: FIGS. 12A-C presents representative images of necropsy results for NSG mice treated with mono-EGF-IT or bi-EGF-IT without tumor cell injection. Mice were euthanized on day 13 after the first injection of the fusion toxins. The images show representative gross changes observed in the ear (FIG. 12A), liver (FIG. 12C) and gastrointestinal tract of a representative NSG mouse treated with mono-EGF-IT compared to a representative NSG mouse treated with bi-EGF-IT.
Mono-EGF-IT (mEGF-IT), bEGF-IT, or DT390 was intraperitoneally injected (IP) starting at day 4 at 50 μg/kg, once daily for 10 consecutive days. […] The injected animals were observed daily for signs and symptoms of illness and scored at least twice weekly based on the parameters as previously reported (Peraino et al. (2013), J. Immunol. Methods 398-399, 33-43, which is hereby incorporated by reference in its entirety; Wang et al., 2015). The animals were humanely euthanized when the score exceeded the limit or the animal lost more than 15% of its pre-injection body weight. In addition, to assess whether the fusion toxins are toxic to the animals, NSG mice injected with the fusion toxins only were also included as control.
The main side effects of targeting EGFR are caused by off-target effects, because EGFR is expressed in many healthy tissues, include skin, liver, and gastrointestinal tract (Widakowich et al., (2007), Oncologist, 12, 1443-1455). […] To further assess these toxic effects, another in vivo toxicity study in non-tumor-bearing mice was performed. NSG mice were treated with mono-EGF-IT or bi-EGF-IT, without tumor cell injection.

[9] = non-tumor-bearing NSG mice, 13 days after the first injection

Compound | IC50 [1] | IC50 [2] | IC50 [3] | IC50 [4] | IC50 [5] | in vitro efficacy against the examined HNSCC cell lines [6] | Kd [7] | IC50 [8] | adverse effects observed in treated mice (NSG mice; mice of the efficacy studies) | general condition and skin (NSG mice; non-tumor-bearing NSG mice) | necropsy, gastrointestinal tract (NSG mice; [9]) | necropsy, liver (NSG mice; [9])
C#Cc1cccc(Nc2ncnc3cc(OCCOC)c(OCCOC)cc23)c1 [Erlotinib] | 940 nM | 2460 nM | 4120 nM | 410 nM | 1540 nM | effective in vitro against all 14 examined HNSCC tumor cell lines | – | – | – | – | – | –
Bi-EGF IT: DT390 joined by G4S to two human EGF domains linked by (G4S)3, C-terminal 6×His tag; SEQ ID NO: 10 | – | – | – | – | – | – | 5.05 nM | 0.0562 nM | these adverse effects were not observed | but not bi-EGF-IT, were again generally unhealthy and lethargic with skin rashes | normal appearance of the gastrointestinal tract | no significant abnormal findings
